In patent publication US11466007B2, “Substituted lactams showing serotonin 5-HT receptor activity” (Sumitomo Pharma Co., Ltd., priority 2018, dated 2022):

Experiment: Test 4: metabolic stability test in human hepatic microsome
Assay type: in vitro ADME
Settings: 0.1 mg/mL microsome, 0.1 μmol/L compound, NADPH, 37° C., 30 minutes
Protocol: Test 4: Metabolic Stability Test in Human Hepatic Microsome
The stability of the present compound in human hepatic microsome metabolism was evaluated as mentioned below. Human hepatic microsome was obtained from Xenontech. Human hepatic microsome, NADPH, and each test compound were mixed in 25 mmol/L phosphate buffer solution (pH 7.4) to reach the following concentrations as shown below, and the mixture was incubated at 37° C. for 30 minutes. • Human hepatic microsome: 0.1 mg/mL • NAPDH: 3.2 mmol/L • Test compound: 0.1 μmol/L
The residual ratio of the test compound in each sample after 30 minutes was measured by LC-MS, and the metabolic stability in human hepatic microsome was calculated from the following formula. Metabolic stability in human hepatic microsome (mL/min/mg protein)=−LN(residual ratio)/30/0.1

| Metabolic stability in human hepatic microsome [mL/min/mg protein] | SMILES |
| --- | --- |
| <0.05 | O=C1c2ncccc2CCN1CCN1CCC(c2noc3cc(F)ccc23)CC1 [Example 125] |
| 0.083 | Cc1cncc2c1CCN(CCN1CCC(c3noc4ccccc34)CC1)C2=O [Example 138] |
| <0.01 | Cn1ccc2c1CCCN(CCN1CCC(c3noc4ccccc34)CC1)C2=O [Example 103, 5-{2-[4-(1,2-Benzoisoxazol-3-yl)piperidin-1-yl]ethyl}-1-methyl-5,6,7,8-tetrahydropyrrolo[3,2-c]azepin-4(1H)-one] |
| 0.210 | [2H]C([2H])([2H])Oc1cc2c(cn1)C(=O)N(CCN1CCN(c3nsc4ccccc34)CC1)CC2([2H])[2H] [Example 107, 2-{2-[4-(1,2-Benzoisothiazol-3-yl)piperazin-1-yl]ethyl}-6-[(^2H3)methyloxy](4,4-^2H2)-3,4-dihydro-2,7-naphthyridin-1(2H)-one] |
| 0.074 | Cc1noc2c1C(=O)N(CCN1CCC(c3noc4ccccc34)CC1)CC2 [Example 33] |
| 0.046 | Cc1nccc2c1C(=O)N(CCN1CCN(c3noc4ccccc34)CC1)CC2 [Example 85] |
| <0.05 | Cn1ncc2c1CCN(CCN1CCC(c3noc4ccccc34)CC1)C2=O [Example 130] |
| <0.05 | O=c1c2cccnc2ccn1CCN1CCN(c2noc3ccccc23)CC1 [Example 115] |
| <0.05 | CC(CN1CCC(c2noc3cc(F)ccc23)CC1)N1CCc2cccnc2C1=O (stereo not drawn) [Example 122] |
| 0.050 | Cc1ccc2onc(C3CCN(CCN4CCc5cccnc5C4=O)CC3)c2c1 [Example 89] |
| 0.064 | O=c1c2ncccc2ccn1CCN1CCN(c2nsc3ccccc23)CC1 [Example 8] |
| 0.018 | Cc1nc2c(o1)C(=O)N(CCN1CCN(c3nsc4ccccc34)CC1)CCC2 [Example 46] |
| 0.065 | Cn1ncc2c1CCCC(CCN1CCC(c3noc4ccccc34)CC1)C2=O (stereo not drawn) [Example 30] |
| <0.05 | O=C1c2occc2CCN1CCN1CCC(c2noc3ccccc23)CC1 [Example 127] |
| 0.013 | O=C1c2[nH]ncc2CCN1CCN1CCC(c2noc3ccccc23)CC1 [Example 98, 6-{2-[4-(1,2-Benzoisoxazol-3-yl)piperidin-1-yl]ethyl}-1,4,5,6-tetrahydro-7H-pyrazolo[3,4-c]pyridin-7-one] |
| <0.05 | O=C1c2nc[nH]c2CCN1CCN1CCC(c2noc3ccccc23)CC1 [Example 191, 5-{2-[4-(1,2-Benzoisoxazol-3-yl)piperidin-1-yl]ethyl}-6,7-dihydro[1,3]imidazolo[4,5-c]pyridin-4(5H)-one] |
| <0.05 | O=C1c2cn[nH]c2CCN1CCN1CCC(c2noc3ccccc23)CC1 [Example 189, 5-{2-[4-(1,2-Benzoisoxazol-3-yl)piperidin-1-yl]ethyl}-1,5,6,7-tetrahydro-4H-pyrazolo[4,3-c]pyridin-4-one] |
| <0.01 | O=C1c2ncccc2CCN1CCN1CCC(c2noc3ccc(F)cc23)CC1 [Example 5] |
| 0.018 | O=C1c2cn(C3CC3)nc2CCN1CCN1CCC(c2noc3ccccc23)CC1 [Example 76] |
| <0.01 | O=C1c2ncccc2CCN1CCN1CCN(c2noc3ccccc23)CC1 [Example 1, 7-{2-[4-(1,2-Benzoisoxazol-3-yl)piperazin-1-yl]ethyl}-6,7-dihydro-1,7-naphthyridin-8(5H)-one] |
| <0.05 | Cc1c2c(nn1C)CCN(CCN1CCN(c3noc4ccccc34)CC1)C2=O [Example 171] |
